Results from patent publication US8669346B2, “Bone marrow targeting peptides” (Case Western Reserve University, priority 2010, dated 2014).
Entries after “also recorded” stand apart in the source; their conditions may differ. Where no end group is shown, it is not given here.

Key:
bone marrow [1] = experiment: in vivo phage display screening; sequencing of phage plaques after the 5th round of injection; design: species or system C57BU6 mice; settings: for Sequence copy number C BM: control bone marrow; for Sequence copy number C BM / Sequence copy number Irr BM: 20 plaques per organ isolate; for Sequence copy number Irr BM: irradiated bone marrow; for Sequence copy number Lung: 20 plaques per organ isolate (Table III); for R. Leg (IRR) / Lung / L. Leg (Non-IRR): number of sequenced plaques with this sequence; for R. Leg (IRR): bone marrow of irradiated right leg; for R. Leg (IRR) / L. Leg (Non-IRR): after last injection; for Lung: after last injection (Table II); for L. Leg (Non-IRR): bone marrow of non-irradiated left leg
Experimental: FIG. 2 illustrates schematic view of a phage screening strategy in accordance with an aspect of the application. The entire procedure was repeated 5 times to eliminate non-specific phage. On the fifth extraction, phage plaques were isolated from multiple organs and individually collected, expanded and sequenced.
(§1) C57BU6 mice had their right leg irradiated then, 24 h later, a phage library was injected and allowed to circulate, bone marrow was then harvested and the phage pool isolated. Phage were amplified and injected into the next mouse, and this process repeated a total of five times. The phage pool was then analysed from irradiated and non-irradiated legs and the sequences determined. Individual phage were then amplified, injected into irradiated mice and tissue distribution assessed. Table 1 lists the different peptides that came out of the sequencing from plaques plated after the last injection.
The screening methodology employed for isolating bone marrow-binding peptide sequences via phage display is illustrated in FIG. 2. Included in our screening strategy was the idea of obtaining some bone marrow-binding peptides that had high affinity for irradiated bone marrow, which, although not a required feature for targeting UCB cells to marrow, could be useful for engraftment into hosts where radiation treatment is part of the conditioning regimen. After the 5th round of phage injections, phage was isolated from lungs and from irradiated and non-irradiated bone marrow and sequenced (20 plaques per organ isolate).

bone marrow [2] = experiment: distribution of individual phage injected into mice whose right leg was irradiated (FIG. 1); assay type: in vivo
Experimental: FIG. 1 illustrates the distribution of individual phage injected into mice whose right leg was irradiated. The amount of phage was normalized to tissue mass.
as §1

bone marrow [3] = experiment: phage playoff screen, phage titer (PFU) per gram of tissue (FIG. 3); assay type: in vivo; settings: equimolar phage injected, single mouse
Experimental: FIG. 3 illustrates a chart showing the results of a phage “playoff screen” where equimolar amounts of phage were injected into a mouse and plaque forming units (PFU) quantified.
We conducted a “playoff screen” to confirm bone marrow-targeting specificity. To perform a Playoff Screen, selected phage, along with a randomly selected phage from the pre-selected phage pool, were injected at equi-molar amounts into irradiated and non-irradiated mice, the bone marrows extracted, weighed and assayed for phage titer per gram of tissue; an example of the results of a Playoff Screen is shown in FIG. 3. While the data shown here are from only a single mouse, the results were important in several aspects.

UCB CD34+ cells [4] = experiment: cell coating by CCP, flow cytometry using FITC-labeled Streptavidin; assay type: cell-based, human
Experimental: (§2) The CCP molecule has three primary components: One, the targeting peptide sequence; two, a linker sequence containing a biotinylated amino acid; and, three a lipid moiety for integration into the cell membrane (FIG. 4). Once synthesized, all CCP molecules are tested for purity and molecular weight using HPLC and mass spectroscopy (located in the Puget Sound Blood Center); for their ability to coat UCB CD34+ cells using flow cytometry, for any toxicity effects on progenitors using MTT and hematopoietic colony forming unit (CFU) assays.
(§3) Sequences from this initial round of selection (CALFFV (SEQ ID NO:1), RAPGGET (SEQ ID NO:41), RKVVVGS (SEQ ID NO: 4) and control RSR) were contracted out to commercial vendors for synthesis into CCPs. One single-hit sequence from bone marrow, RKVVVGS (SEQ ID NO:4), termed “RKV”, was successfully synthesized, purified, and its molecular weight validated by mass spectroscopy.

UCB CD34+ cells [5] = experiment: MTT assay, toxicity on coated cells; assay type: cell-based, human; settings: data not shown
Experimental: as §2, §3

bone marrow [6] = experiment: spleen and bone marrow-targeting of UCB cells coated with RKV-CCP, qRT-PCR of human ALU sequences (FIG. 5); assay type: in vivo, mice; settings: 3 weeks post injection
Excerpt: FIG. 5 illustrates a chart showing ALU qRT-PCR quantification of human UCB cell numbers. The y-axis indicates human cell numbers calculated from a human cell standard curve. RKV=RKV-coated human UCB cells; NC=Non-coated human UCB cells; P=Plasma-injected. ρ values are from Student's t test between RKV and NC samples. The squares indicate the individual values for the RKV samples.
Preliminary spleen and bone marrow-targeting of UCB cells has already been conducted with the RKV peptides as a CCP molecule (RKV-CCP). UCB cells were isolated using a discontinuous Percol gradient, red blood cells were lysed with ammonium chloride, and the cells were incubated at 37° C. for a total of 10 min with RKV-CCP molecule (30 μg/ml), centrifuged, washed and stored at 4° C. until injected. Progenitors from two separate UCB units were coated and tested. Mice were sub-lethally irradiated with 250 cGy and injected with 1.0×10^8 RKV-CCP coated or non-coated UCB cells, or plasma-only control; 2 mice per group per UCB sample for a total of 4 mice per injection group. Bone marrow, spleen and blood were collected 3 weeks post injection. qRT-PCR was then conducted to assess human ALU sequences. The number of human cells found in the marrow was derived from a qRT-PCR standard curve of known amounts of human cell mixed with murine […] cells. […] Plasma-injected mice had essentially no signal.

spleen = experiment: isolated phage injected into whole body irradiated mice; assay type: in vivo

## CALFFV (listed as Homo sapiens)
Bone marrow [1]
  Sequence copy number C BM: 0
  Sequence copy number Irr BM: 4
  Sequence copy number Lung: 1
  R. Leg (IRR): 4
  Lung: 1

## CGYREVSSAALE (listed as Homo sapiens) [-CGYREVSSAALE]
Bone marrow [1]
  R. Leg (IRR): 1

## DDQSVSRKLAAALE (listed as Homo sapiens)
Bone marrow [1]
  Sequence copy number C BM: 0
  Sequence copy number Irr BM: 3
  Sequence copy number Lung: 0
  R. Leg (IRR): 3
Bone marrow [2]; individual phage, irradiated versus non-irradiated leg, in words
  increased signal in irradiated leg: exception

## DGRSSRG (listed as Homo sapiens)
Bone marrow [1]
  Lung: 1

## DLAHDALLAWGPPSINCLTLGAP (listed as Homo sapiens)
Bone marrow [1]
  R. Leg (IRR): 1

## DRN-RSA (DRNRSA; listed as Homo sapiens)
Bone marrow [1]
  Lung: 1

## EGGNEV (listed as Homo sapiens) [EGGN-EV]
Bone marrow [1]
  L. Leg (Non-IRR): 1
  Lung: 1

## FSGRRLVSPRPHPSN (listed as Homo sapiens)
Bone marrow [1]
  Lung: 1

## GDRRDSR (listed as Homo sapiens)
Bone marrow [1]
  L. Leg (Non-IRR): 1

## GGL-RGGKLAAALE (GGLRGGKLAAALE; listed as Homo sapiens)
Bone marrow [1]
  Lung: 1

## GGNANRR (listed as Homo sapiens)
Bone marrow [1]
  Lung: 1

## GIRVMEK (listed as Homo sapiens)
Bone marrow [1]
  Sequence copy number C BM: 0
  Sequence copy number Irr BM: 2
  Sequence copy number Lung: 0
  R. Leg (IRR): 2

## GMKGVQL (listed as Homo sapiens)
Bone marrow [1]
  Lung: 1

## GPGLKEM (listed as Homo sapiens)
Bone marrow [1]
  L. Leg (Non-IRR): 4

## GRELRGQ (listed as Homo sapiens)
Bone marrow [1]
  L. Leg (Non-IRR): 1

## GRGDR-R (GRGDRR; listed as Homo sapiens)
Bone marrow [1]
  Lung: 1

## GRRGGAKPAVASRR (listed as Homo sapiens) [GRR-GGAKPAVASRR]
Bone marrow [1]
  L. Leg (Non-IRR): 1

## KSMARHR (listed as Homo sapiens)
Bone marrow [1]
  L. Leg (Non-IRR): 1
  Lung: 1

## KVSD-SL (KVSDSL; listed as Homo sapiens)
Bone marrow [1]
  Lung: 1

## LDSSLFN (listed as Homo sapiens)
Bone marrow [1]
  L. Leg (Non-IRR): 1

## LSTNRFV (listed as Homo sapiens)
Bone marrow [1]
  L. Leg (Non-IRR): 1

## LSTRVER (listed as Homo sapiens)
Bone marrow [1]
  Lung: 1

## QARNGGR (listed as Homo sapiens)
Bone marrow [1]
  Sequence copy number C BM: 0
  Sequence copy number Irr BM: 0
  Sequence copy number Lung: 1
Bone marrow [1]; in words
  bone marrow specificity in the sequencing screen: no bone marrow specificity
Bone marrow [3]
  phage levels / binding in lung: high levels; also recorded: highest level
  phage levels / titers in bone marrow: low levels
  titers in the lung compared with bone marrow: greater

## QNDSASG (listed as Homo sapiens)
Bone marrow [1]
  Lung: 1

## RAANTAR (listed as Homo sapiens)
Bone marrow [1]
  Lung: 1

## RAPGGET (listed as Homo sapiens)
Bone marrow [1]
  Sequence copy number C BM: 0
  Sequence copy number Irr BM: 1
  Sequence copy number Lung: 0

## RGLQTGLEGSAWLLECGRA (listed as Homo sapiens)
Bone marrow [1]
  R. Leg (IRR): 1

## RKV: cell coating peptide: RKVVVGS targeting sequence, spacer with biotin-labeled amino acid, lipid moiety for membrane insertion (also: spacer with biotin-labeled amino acid, end not given here, lipid moiety for membrane insertion, end not given here; listed as Homo sapiens)
UCB CD34+ cells [4]
  ability to coat cells: able to coat cells efficiently
UCB CD34+ cells [5]
  toxic effects on coated cells (MTT): no toxic effects
Bone marrow [6]; 1.0×10^8 UCB cells coated at 30 μg/ml, 250 cGy, ρ value 0.09
  human-derived cells in bone marrow compared to control non-coated cells: ~7 ×
Bone marrow [6]
  UCB cell numbers in bone marrow compared to spleen: approximately 6 times
Bone marrow [6]; statistically significant
  UCB cell numbers in the spleen compared to uncoated UCB cells: enhanced

## RKVVVGS (listed as Homo sapiens)
Bone marrow [1]
  Sequence copy number C BM: 0
  Sequence copy number Irr BM: 1
  Sequence copy number Lung: 0
  R. Leg (IRR): 1
Bone marrow [2]; in words
  binding in irradiated legs: marked increase in binding
  binding in non-irradiated legs: minimal binding
Bone marrow [2]; individual phage, right leg irradiated, phage normalized to tissue mass
  signal in the irradiated leg relative to non-irradiated leg: approximately 15 ×
spleen
  binding to spleen: highly increased binding

## RQDGRHG (listed as Homo sapiens)
Bone marrow [1]
  Sequence copy number C BM: 0
  Sequence copy number Irr BM: 1
  Sequence copy number Lung: 0
  R. Leg (IRR): 1

## RRSGKLL (listed as Homo sapiens)
Bone marrow [1]
  L. Leg (Non-IRR): 2

## SIGHRRE (listed as Homo sapiens)
Bone marrow [1]
  Sequence copy number C BM: 4
  Sequence copy number Irr BM: 0
  Sequence copy number Lung: 0
  L. Leg (Non-IRR): 1
Bone marrow [3]
  phage levels / titers in bone marrow: minimal

## SSYALI (listed as Homo sapiens) [SS-YALI]
Bone marrow [1]
  Sequence copy number C BM: 1
  Sequence copy number Irr BM: 5
  Sequence copy number Lung: 0
  R. Leg (IRR): 5

## SVAPLRR (listed as Homo sapiens)
Bone marrow [1]
  Lung: 1

## TS-QLWC (TSQLWC; listed as Homo sapiens)
Bone marrow [1]
  L. Leg (Non-IRR): 4

## TSLKDDR (listed as Homo sapiens)
Bone marrow [1]
  Lung: 1

## VFSGVEVSSRPHSSN (listed as Homo sapiens)
Bone marrow [1]
  Lung: 1

## VGPSVGP (listed as Homo sapiens)
Bone marrow [1]
  L. Leg (Non-IRR): 1

## VGVRIGGSLRPHSSN (listed as Homo sapiens)
Bone marrow [1]
  Lung: 1

## VSGSVR (listed as Homo sapiens)
Bone marrow [1]
  Lung: 1

## VSKRDL (listed as Homo sapiens) [V-SKRDL]
Bone marrow [1]
  R. Leg (IRR): 1

## VVRAK (listed as Homo sapiens)
Bone marrow [1]
  Lung: 1
